Legend:
[1] = system: upper limb tremor in participants with ET; test: Phase 2 trial in essential tremor (Part A, Part B OLT, Part B RWD): TETRAS performance subscale, ADL and mADL scores; assay type: in vivo, human; parameters: key to TETRAS ADL Randomization Baseline Mean: TETRAS ADL: 12 items each rated 0 to 4
From the text: In some embodiments, the compound of Formula (I) or a pharmaceutically acceptable salt thereof (e.g., the HCl salt), when administered in combination with at least one of propranolol, primidone, topiramate, or a pharmaceutically acceptable salt thereof can reduce tremor severity by at least about 20% when measured by The Essential Tremor Rating Assessment Scale (TETRAS). The term “TETRAS” as used herein refers to a scale developed to quantify severity of ET and its impact on daily activities. It has an activities of daily living (ADL) section and a performance section. The ADL section has 12 items rated between 0 to 4, and the performance section has 9 items rated between 0 to 4. See, e.g., Elble, R. R., The Essential Tremor Rating Assessment Scale, J. Neurology Neuromed. 2016, 1(4):34-38. This multi-center clinical trial assessed the efficacy, safety, tolerability, and PK of the HCl salt compound of Formula (I) in participants aged 18 years of age or older who have had signs and symptoms consistent with ET for at least 3 years, with an onset before age 65. The clinical trial was conducted in 2 parts (Part A and Part B). Both parts consisted of 3 periods: Screening/Baseline, Intervention, and Safety Follow-up Periods. Part A of the clinical trial was open-label and assessed the safety and tolerability of the study drug, as well as the overall magnitude and pattern of change in ET severity. Daily dose levels of the HCl salt compound of Formula (I) were titrated from 20 mg (Day 1 to Day 7) to 40 mg (Days 8 to 14). Part B of the clinical trial consisted of both an open-label titration phase and a randomized, double-blind, placebo-controlled withdrawal phase. Part B assessed the safety and tolerability of the study drug, as well as the overall magnitude and pattern of change in ET severity and the duration of that effect. During the open-label titration phase, the daily dose levels of the HCl salt compound of Formula (I) were titrated from 20 mg (Days 1 to 3) to 40 mg (Days 4 to 7) to 60 mg (Days 8 to 14) to 80 mg (Days 15 to 21) to 100 mg (Days 22 to 28) to 120 mg (Days 29 to 42) or the highest tolerated dose. In the randomized, double-blind, placebo-controlled withdrawal phase, participants were either maintained on their final open-label dose or switched to placebo for an additional 14 days (Days 43 to 56). Part A. On Day 1, participants received a 20 mg dose of study drug, administered in the morning. Participants remained in a clinical setting under medical observation for approximately 6 hours. TETRAS Performance assessments were performed before dosing and 6 hours post-dose. After the first dose, participants continued QAM dosing at home after breakfast through Day 7. Participants returned to the clinic on Day 7 for efficacy testing at the 20 mg dose level. On Day 8, the dose increased to 40 mg QAM after breakfast through Day 14. Participants returned to the clinic on Day 14 for efficacy testing at the 40 mg dose level. Participants who agreed to optional additional PK sampling remained overnight in the clinic on Day 1, Day 7, and Day 14. Key safety measures included clinical laboratory evaluations, 12-lead ECG, C-SSRS, and vital signs. Key efficacy assessments included the TETRAS Performance subscale, TETRAS Upper Limb using accelerometry, CGI, and PGI-C. Blood samples were obtained for the determination of study drug plasma concentrations using a validated bioanalytical method and may also be used for method development and/or metabolite characterization. On Day 1, participants received a 20 mg dose of study drug on an empty stomach (at least 1 hour before breakfast). Participants remained in a clinical setting under medical observation for approximately 6 hours. TETRAS Performance assessments were performed before dosing and 6 hours (±2) post-dose. For dosing on Day 2 through Day 41, participants were instructed to dose QAM at least 1 hour before breakfast at home. Participants continued taking study drug 20 mg QAM at home through Day 3. […]

[2] = system: participants with ET; test: Phase 2 trial: Clinical Global Impression-Improvement (CGI-I); assay type: in vivo, human
From the text: The Clinical Global Impression-Improvement (CGI-I) (Guy 1976) assesses the clinician's impression of the participant's functioning prior to and after initiating study medication. The clinician should use his/her total clinical experience with this patient population and rate the current severity of the participant's essential tremor symptoms on a 7-point scale from 1 (Normal, not at all ill) to 7 (Among the most extremely ill patients). Accordingly, in some embodiments, the methods of the present invention result in a decrease in CGI-I score compared to baseline, e.g., prior to treatment. Key safety measures included clinical laboratory evaluations, 12-lead ECG, C-SSRS, and vital signs. Key efficacy assessments included the TETRAS Performance subscale, TETRAS Upper Limb using accelerometry, CGI, and PGI-C. Blood samples were obtained for the determination of study drug plasma concentrations using a validated bioanalytical method and may also be used for method development and/or metabolite characterization. In both phases, key safety measures included clinical laboratory evaluations, 12-lead ECG, C-SSRS, and vital signs. Key efficacy assessments included the TETRAS Performance subscale, TETRAS Upper Limb using accelerometry, CGI, PGI-C, TETRAS ADL Subscale, QUEST, BDI-II, and BAI. Blood samples were obtained for the determination of study drug and metabolite plasma concentrations.

[3] = Part B OLT, Day 7, N = 10, change from pre-dose baseline
[4] = Part B OLT, Day 21, N = 12, change from pre-dose baseline
[5] = Part B OLT, Day 42, 6 hours post-dose, N = 11, change from pre-dose baseline
[6] = Part B RWD, Day 56, study drug group N = 6, change from randomization baseline, last line of the cell group
[7] = Part B RWD, study drug group N = 6, Day 42 post-dose value

Structure (SMILES): CC(C)(C)NC(=O)CN1CCC(CNC(=O)c2cc(F)cc(Cl)c2)CC1.Cl [Study drug]
- response (e.g., reduced tremor symptoms) of ET patients ([1]; ET patients who were taking propranolol hydrochloride, phase 2 clinical trial): responded favorably
- all TETRAS performance subscale-derived scores after washout ([1]; Part A, Day 21, after a 1-week washout period): returned to near pre-dose baseline levels
- mADL (TETRAS modified total score) CTA LS Mean % [1, 3]: −18.49%
- mADL (TETRAS modified total score) Score CFB LS Mean [1, 3]: −2.862
- TETRAS CULS Score CFB LS Mean [1, 4]: 1.320
- mADL (TETRAS modified total score) CTA LS Mean % [1, 4]: −14.31%
- mADL (TETRAS modified total score) Score CFB LS Mean [1, 4]: −2.812
- mADL (TETRAS modified total score) CTA LS Mean % [1, 5]: −42.04%
- mADL (TETRAS modified total score) Score CFB LS Mean [1, 5]: −6.669
- TETRAS ADL LS Mean Difference: Study drug - Placebo (95% CI) ([1]; Part B RWD, Day 56): −9.578 (−18.9020, −0.2546)
- TETRAS CULS LS Mean Difference: Study drug - Placebo (95% CI) ([1]; Part B RWD, Day 56): −1.896 (−8.7365, 4.9451)
- TETRAS PSTS LS Mean Difference: Study drug - Placebo (95% CI) ([1]; Part B RWD, Day 56): −3.025 (−11.2090, 5.1595)
- TETRAS ULS LS Mean Difference: Study drug - Placebo (95% CI) ([1]; Part B RWD, Day 56): −0.253 (−4.9188, 4.4129)
- mADL LS Mean Difference: Study drug - Placebo (95% CI) ([1]; Part B RWD, Day 56): −8.439 (−15.3856, −1.4916)
- mADL (TETRAS modified total score) LS Mean CFB ([1]; Part B RWD, Day 56, study drug group N = 6, change from randomization baseline): 1.350
- TETRAS ADL Mean CFB [1, 6]: 5.84
- mADL (TETRAS modified total score) Mean CFB [1, 6]: 8.45
- mADL LS Mean Difference: Study drug - Placebo (95% CI) ([1]; Part B RWD, Day 56, listed as study drug): −8.439
- TETRAS ADL LS Mean Difference: Study drug - Placebo (95% CI) ([1]; Part B RWD, Day 70): −5.988 (−16.8132, 4.8377)
- TETRAS CULS LS Mean Difference: Study drug - Placebo (95% CI) ([1]; Part B RWD, Day 70): −0.964 (−6.5938, 4.6660)
- TETRAS PSTS LS Mean Difference: Study drug - Placebo (95% CI) ([1]; Part B RWD, Day 70): −1.277 (−7.5286, 4.9741)
- TETRAS ULS LS Mean Difference: Study drug - Placebo (95% CI) ([1]; Part B RWD, Day 70): −0.316 (−3.3765, 2.7441)
- mADL LS Mean Difference: Study drug - Placebo (95% CI) ([1]; Part B RWD, Day 70): −3.236 (−12.3264, 5.8538)
- mADL (TETRAS modified total score) LS Mean CFB ([1]; Part B RWD, Day 70 (follow-up), study drug group N = 6, change from randomization baseline): 4.353
- TETRAS ADL Mean CFB ([1]; Part B RWD, Day 70 (follow-up), study drug group N = 6, change from randomization baseline, last line of the cell group): 18.73
- TETRAS ADL Randomization Baseline Mean [1, 7]: 22.17
- TETRAS CULS Randomization Baseline Mean [1, 7]: 19.33
- TETRAS PS Item 6: Archimedes Spiral (Left) Randomization Baseline Mean (SD) [1, 7]: 1.75 (0.524)
- TETRAS PS Item 6: Archimedes Spiral (Right) Randomization Baseline Mean (SD) [1, 7]: 1.75 (0.247)
- TETRAS PS Item 7: Handwriting Randomization Baseline Mean (SD) [1, 7]: 1.75 (1.405)
- TETRAS PSTS Randomization Baseline Mean [1, 7]: 22.83
- TETRAS ULS Randomization Baseline Mean [1, 7]: 10.25
- mADL (TETRAS modified total score) Randomization Baseline Mean [1, 7]: 12.17
- all TETRAS performance subscale-derived, TETRAS ADL-derived, and quality of life measures after washout ([1]; Part B, Day 70, after a 1-week washout period): returned to near pre-dose baseline levels
- CGI-I Score 5 minimally worse ([2]; Part B OLT (FAS), Day 7, n = 12): 1 n (%)
- CGI-I Score 5 minimally worse ([2]; Part B RWD (RWAS), Day 70, study drug group, n = 5, vs randomization baseline): 1 n (%)

— patent US20250170114A1, “METHODS OF TREATMENT USING T-TYPE CALCIUM CHANNEL MODULATORS” (Praxis Precision Medicines, Inc., priority 2022, published 2025)
